In US8697692B2, “Pyrrolo [3,2-c] pyridine-4-one 2-indolinone protein kinase inhibitors” (Shanghai Hengrui Pharmaceutical Co., Ltd., priority 2006, dated 2014) one finds IC50 data, which are given here for 14 compounds.

For assay [1], the target named is T1, EGFR kinase (Homo sapiens, UniProt P00533).
T1 construct: purchased Cell signaling technology #7908
Briefly: EGFR Kinase Assay. The assay is classed as biochemical. As to conditions: 20 μM ATP, 25° C. 45 minutes. The method, then:
EGFR kinase activity in vitro was measured as described below:
a. Wash Buffer (PBS-T Buffer): 1×PBS (137 mM NaCl, 2.7 mM KCl, 4.3 mM Na2HPO4, 1.4 mM KH2PO4, adjust the pH to 7.2) and 0.05% Tween-20.
(§1) b. 1% Bovine Serum Albumin (BSA, Calbiochem #136593) in PBS-T.
c. Stop Buffer: 50 mM EDTA, pH 8.0
d. DELFIA® Europium-labeled Anti-mouse IgG (PerkinElmer Life Sciences #AD0124)
e. DELFIA® Enhancement Solution (PerkinElmer Life Sciences #1244-105)
f. DELFIA® Streptavidin coated, 96-well, yellow plate (PerkinElmer Life Sciences #AAAND-0005)
g. EGFR kinase (supplied in 50 mM Tris-HCl (pH 8.0), 100 mM NaCl, 5 mM DTT, 15 mM reduced glutathione and 20% glycerol. Cell signaling technology #7908).
(§2) h. 10 mM ATP solution (Cell signaling technology #9804).
i. PTP1B (Tyr66) Biotinylated Peptide (Cell signaling technology #1325).
(§3) j. Phospho-Tyrosine Mouse mAb (P-Tyr-100) (Cell signaling technology #9411).
(§4) k. HTScan™ Tyrosine Kinase Buffer (4×)
(§5) (Cell signaling technology #9805).
(§6) l. 1.25 M DTT (1000×) (Cell signaling technology).
(§7) The following protocol was used:
1. Dilute test compound with DMSO to the desired final assay concentration.
2. Dilute 6 μM substrate peptide (Tyr66) 1:1 with dH2O, add 15 μl to every assay.
3. Immediately transfer EGFR enzyme from −80° C. to ice. Allow enzyme to thaw on ice.
4. Take 3 μg EGFR enzyme to the enzyme tube.
(§8) 5. Add 10 μl of DTT (1.25 M) to 2.5 ml of 4×HTScan™ Tyrosine Kinase Buffer (240 mM HEPES pH 7.5, 20 mM MgCl2, 20 mM MnCl2, 12 μM Na3VO4) to make DTT/Kinase buffer.
(§9) 6. Transfer 0.75 ml of DTT/Kinase buffer to each enzyme tube to make 4× reaction cocktail. Add 7.5 μl 4× reaction cocktail to every assay.
7. Add 4 μl ATP (10 mM) to 496 μl dH2O, take 7.5 μl for every assay.
Final Assay Conditions for a 30 μl Reaction
(§10) Incubate reaction tube at 25° C. for 45 minutes. 9. Add 30 μl/assay stop buffer (50 mM EDTA, pH 8.0) to stop the reaction. 10. Transfer 25 μl of each reaction and 75 μl dH2O/well to a 96-well streptavidin coated plate and incubate, with shaking at room temperature for 60 minutes. 11. Wash three times with 200 μl/well PBS-T buffer. Pat plate on paper towel to remove excess liquid. 12. Dilute primary antibody, Phospho-Tyrosine mAb (P-Tyr-100), 1:1000 in PBS-T buffer with 1% BSA. Add 100 μl diluted primary antibody to each well. 13. Incubate, with shaking at room temperature for 60 minutes. 14. Wash as described above in step 11. 15. Dilute Europium labeled anti-mouse IgG 1:500 in PBS-T buffer with 1% BSA. Add 100 μl diluted antibody to each well. 16. Incubate, with shaking at room temperature for 30 minutes. 17. Wash five times with 200 μl/well PBS-T buffer. Pat plate on paper towel to remove excess liquid. 18. Add 100 μl/well DELFIA® Enhancement Solution. 19. Incubate, with shaking at room temperature for 5 minutes. 20. Detect 615 nm fluorescence emission with appropriate Time-Resolved Plate Reader.
(§11) Calculate the inhibition rate: IR (%)=100−100*(X−B)/(N−B)
(§12) X=the fluorescence value of the well contained test compound
(§13) The IC50 value can be derived from the IRs of compounds at different concentration gradients.

For assay [2], the target named is T2, HER-2/ErbB2 kinase (Homo sapiens, UniProt P04626).
T2 construct: purchased Invitrogen corporation #PV3366
T2 sequence (P04626 23-1255): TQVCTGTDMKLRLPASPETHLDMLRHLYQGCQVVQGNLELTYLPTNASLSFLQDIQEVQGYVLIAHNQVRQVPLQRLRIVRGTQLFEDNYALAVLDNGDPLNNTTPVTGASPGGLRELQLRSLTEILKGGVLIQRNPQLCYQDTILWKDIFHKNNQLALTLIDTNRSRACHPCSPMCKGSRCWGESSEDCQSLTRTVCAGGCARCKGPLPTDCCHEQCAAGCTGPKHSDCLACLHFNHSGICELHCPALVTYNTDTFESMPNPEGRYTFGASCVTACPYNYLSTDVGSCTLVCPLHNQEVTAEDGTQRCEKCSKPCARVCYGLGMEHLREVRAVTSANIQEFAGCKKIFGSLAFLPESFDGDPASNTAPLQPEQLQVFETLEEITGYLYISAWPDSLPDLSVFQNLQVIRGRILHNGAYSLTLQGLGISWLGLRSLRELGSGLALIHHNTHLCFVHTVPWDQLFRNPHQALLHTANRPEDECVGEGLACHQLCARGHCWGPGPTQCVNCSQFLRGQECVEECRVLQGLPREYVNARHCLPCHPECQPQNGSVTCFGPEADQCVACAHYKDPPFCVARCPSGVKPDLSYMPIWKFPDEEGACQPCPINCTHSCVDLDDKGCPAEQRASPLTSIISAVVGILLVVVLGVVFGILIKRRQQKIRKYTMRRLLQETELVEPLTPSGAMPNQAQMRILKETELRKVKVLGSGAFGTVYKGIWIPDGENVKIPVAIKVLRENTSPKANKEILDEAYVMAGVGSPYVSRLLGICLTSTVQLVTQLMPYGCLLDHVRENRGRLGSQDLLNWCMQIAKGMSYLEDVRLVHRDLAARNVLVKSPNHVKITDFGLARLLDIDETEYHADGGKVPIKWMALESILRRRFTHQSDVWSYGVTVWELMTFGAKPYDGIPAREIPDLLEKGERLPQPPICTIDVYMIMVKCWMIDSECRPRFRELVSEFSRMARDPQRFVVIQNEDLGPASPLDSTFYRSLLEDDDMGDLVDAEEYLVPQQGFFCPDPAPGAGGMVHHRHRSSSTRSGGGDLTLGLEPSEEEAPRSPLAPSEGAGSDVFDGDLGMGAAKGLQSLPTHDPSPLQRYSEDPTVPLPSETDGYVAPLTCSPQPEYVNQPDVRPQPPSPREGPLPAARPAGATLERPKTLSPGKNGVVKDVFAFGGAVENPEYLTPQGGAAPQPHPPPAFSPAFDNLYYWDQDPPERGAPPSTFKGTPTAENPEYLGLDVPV
Briefly: HER-2 Kinase Assay (ELISA). It is filed as biochemical. Conditions: 20 μM ATP, 25° C. 60 minutes. How it is done: An enzyme linked immunosorbent assays (ELISA) was conducted to measure the kinase activity of HER-2 in vitro.
a. Wash Buffer (PBS-T Buffer): 1×PBS (137 mM NaCl; 2.7 mM KCl, 4.3 mM Na2HPO4, 1.4 mM KH2PO4, adjust the pH to 7.2) and 0.05% Tween-20.
as §1
c. Stop Buffer: 50 mM EDTA, pH 8.0.
d. DELFIA® Europium-labeled Anti-mouse IgG (PerkinElmer Life Sciences #AD0124).
e. DELFIA® Enhancement Solution (PerkinElmer Life Sciences #1244-105).
f. DELFIA® Streptavidin coated, 96-well, yellow plate (PerkinElmer Life Sciences #AAAND-0005).
g. HER-2/ErbB2 kinase (Invitrogen corporation #PV3366).
as §2
i. FLT3 (Tyr589) Biotinylated Peptide (Cell signaling technology #1305).
as §3, §4, §5, §6, §7
1. Dilute test compound with DMSO to the desired final assay concentration. Add 1 μl test compound for every assay, to the negative control.
2. Dilute 6 μM substrate peptide (Tyr589) 1:1 with dH2O, add 15 μl to every assay.
3. Immediately transfer HER-2 enzyme from −80° C. to ice. Allow enzyme to thaw on ice.
4. Take 4.5 μg HER-2 enzyme to the enzyme tube.
as §8, §9
7. Add 4 μl ATP (10 mM) to 496 μl dH2O, take 7.5 μl for every assay. Final Assay Conditions for a 30 μl Reaction
as §10, with “60” for “45”
as §11, §12, §13
A general note: An ELISA detects its analyte on a solid surface through an enzyme-linked reagent.

Each structure is given as a SMILES string.

T1 sequence (P00533 25-1210): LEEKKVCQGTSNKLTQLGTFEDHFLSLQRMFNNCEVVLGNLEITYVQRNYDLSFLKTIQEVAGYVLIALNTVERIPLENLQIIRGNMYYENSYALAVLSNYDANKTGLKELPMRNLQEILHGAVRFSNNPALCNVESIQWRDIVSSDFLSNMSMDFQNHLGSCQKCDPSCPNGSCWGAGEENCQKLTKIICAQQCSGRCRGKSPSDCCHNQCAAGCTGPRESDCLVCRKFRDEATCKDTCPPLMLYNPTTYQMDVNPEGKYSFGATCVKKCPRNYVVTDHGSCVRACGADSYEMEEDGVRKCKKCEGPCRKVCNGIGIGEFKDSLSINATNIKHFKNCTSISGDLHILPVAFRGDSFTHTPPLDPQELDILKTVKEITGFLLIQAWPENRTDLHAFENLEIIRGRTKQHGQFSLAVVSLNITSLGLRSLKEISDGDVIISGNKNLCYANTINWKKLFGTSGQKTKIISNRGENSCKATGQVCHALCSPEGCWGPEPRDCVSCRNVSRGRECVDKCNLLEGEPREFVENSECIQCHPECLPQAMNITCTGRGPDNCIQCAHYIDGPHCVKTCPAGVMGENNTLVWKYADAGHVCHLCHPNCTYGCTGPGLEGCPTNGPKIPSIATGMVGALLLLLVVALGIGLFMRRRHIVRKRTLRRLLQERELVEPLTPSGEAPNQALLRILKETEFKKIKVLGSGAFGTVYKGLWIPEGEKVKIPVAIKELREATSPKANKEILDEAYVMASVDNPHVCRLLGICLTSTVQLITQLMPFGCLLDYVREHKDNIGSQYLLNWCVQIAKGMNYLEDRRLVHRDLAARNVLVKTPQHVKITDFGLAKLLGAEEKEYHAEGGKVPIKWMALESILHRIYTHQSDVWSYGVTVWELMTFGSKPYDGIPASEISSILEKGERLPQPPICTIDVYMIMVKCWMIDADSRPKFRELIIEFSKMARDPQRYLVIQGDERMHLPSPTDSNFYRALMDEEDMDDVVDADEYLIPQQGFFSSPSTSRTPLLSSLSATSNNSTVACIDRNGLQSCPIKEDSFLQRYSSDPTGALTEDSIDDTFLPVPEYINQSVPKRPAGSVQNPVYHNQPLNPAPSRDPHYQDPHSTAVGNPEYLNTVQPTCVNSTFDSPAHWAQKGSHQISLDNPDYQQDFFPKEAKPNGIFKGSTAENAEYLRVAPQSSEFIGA

Broadly, the IC50 is the concentration at which inhibition is half-maximal. Read a low IC50 as greater potency in that assay. `CCN(CC)CCN1CCc2[nH]c(/C=C3\C(=O)Nc4cccc(Br)c43)c(C)c2C1=O` [Example 30, 2-(4-Bromo-2-oxo-1,2-dihydro-indol-3-ylidenemethyl)-5-(2-diethylamino-ethyl)-3-methyl-1,5,6,7-tetrahydro-pyrrolo[3,2-c]pyridin-4-one]: in assay [1], the IC50 was found to be 4950 nM.

In assay [1], `Cc1c(/C=C2\C(=O)Nc3ccc(Br)cc32)[nH]c2c1C(=O)N(CCN1CCCC1)CC2` [Example 40, 2-(5-Bromo-2-oxo-1,2-dihydro-indol-3-ylidenemethyl)-3-methyl-5-(2-pyrrolidin-1-yl-ethyl)-1,5,6,7-tetrahydro-pyrrolo[3,2-c]pyridin-4-one] displayed an IC50 of 760 nM.

In assay [2], `Cc1c(/C=C2\C(=O)Nc3cccc(CCO)c32)[nH]c2c1C(=O)N(CCN1CCOCC1)CC2` [Example 42, 2-[4-(2-Hydroxy-ethyl)-2-oxo-1,2-dihydro-indol-3-ylidenemethyl]-3-methyl-5-(2-morpholin-4-yl-ethyl)-1,5,6,7-tetrahydro-pyrrolo[3,2-c]pyridin-4-one] had a half-inhibitory concentration (IC50) of 41100 nM.

Turning to `Cc1c(/C=C2\C(=O)Nc3cccc(C4CCNCC4)c32)[nH]c2c1C(=O)N(CCN1CCOCC1)CC2` [Example 52, 3-Methyl-5-(2-morpholin-4-yl-ethyl)-2-(2-oxo-4-piperidin-4-yl-1,2-dihydro-indol-3-ylidenemethyl)-1,5,6,7-tetrahydro-pyrrolo[3,2-c]pyridin-4-one], half-maximal inhibition in assay [2] (IC50) required 8320 nM.

In turn, `CCN(CC)CCN1CCc2[nH]c(/C=C3\C(=O)Nc4cccc(-c5cccc(Cl)c5F)c43)c(C)c2C1=O` [Example 36, 2-[4-(3-Chloro-2-fluoro-phenyl)-2-oxo-1,2-dihydro-indol-3-ylidenemethyl]-5-(2-diethylamino-ethyl)-3-methyl-1,5,6,7-tetrahydro-pyrrolo[3,2-c]pyridin-4-one] showed an IC50 in assay [1] of 180 nM.

`CCN(CC)CCN1CCc2[nH]c(/C=C3\C(=O)Nc4cccc(CCO)c43)c(C)c2C1=O` [Example 37, 5-(2-Diethylamino-ethyl)-2-[4-(2-hydroxy-ethyl)-2-oxo-1,2-dihydro-indol-3-ylidenemethyl]-3-methyl-1,5,6,7-tetrahydro-pyrrolo[3,2-c]pyridin-4-one] yielded an IC50 in assay [1] of 2890 nM.

`Cc1c(/C=C2\C(=O)Nc3cccc(-c4cccc(F)c4F)c32)[nH]c2c1C(=O)N(CCN1CCCC1)CC2` [Example 59, 2-[4-(2,3-Difluoro-phenyl)-2-oxo-1,2-dihydro-indol-3-ylidenemethyl]-3-methyl-5-(2-pyrrolidin-1-yl-ethyl)-1,5,6,7-tetrahydro-pyrrolo[3,2-c]pyridin-4-one]: the IC50 in assay [2] turned out to be 720 nM.

For the compound `CCN(CC)CCN1CCc2[nH]c(/C=C3\C(=O)Nc4ncnc(Nc5ccc(F)c(Cl)c5)c43)c(C)c2C1=O` [Example 12, 4-(3-Chlor O-4-fluoro-phenylamino)-5-[5-(2-diethylamino-ethyl)-3-methyl-4-oxo-4,5,6,7-tetrahydro-1H-pyrrolo[3,2-c]pyridine-2-ylmethylene]-5,7-dihydro-pyrrolo[2,3-d]pyrimidin-6-one], the figures for the IC50 in assay [1] and in assay [2] were 60 nM and 90 nM, respectively.

Compound `Cc1c(/C=C2\C(=O)Nc3ncc(Br)cc32)[nH]c2c1C(=O)N(CCN1CCOCC1)CC2` [Example 50, 2-(5-Bromo-2-oxo-1,2-dihydro-pyrrolo[2,3-b]pyridin-3-ylidenemethyl)-3-methyl-5-(2-morpholin-4-yl-ethyl)-1,5,6,7-tetrahydro-pyrrolo[3,2-c]pyridin-4-one] showed an IC50 in assay [1] of 510 nM.

For `CCN(CC)CCN1CCc2[nH]c(/C=C3\C(=O)Nc4cccc(-c5cccc(F)c5F)c43)c(C)c2C1=O` [Example 39, 5-(2-diethylamino-ethyl)-2-[4-(2,3-difluoro-phenyl)-2-oxo-1,2-dihydro-indol-3-ylidenemethyl]-3-methyl-1,5,6,7-tetrahydro-pyrrolo[3,2-c]pyridin-4-one], the IC50 turned out to be 340 nM in assay [1] and 270 nM in assay [2].

`CCN(CC)CCN1CCc2[nH]c(/C=C3\C(=O)Nc4cccc(-c5ccc(Cl)cc5F)c43)c(C)c2C1=O` [Example 34, 2-[4-(4-Chloro-2-fluoro-phenyl)-2-oxo-1,2-dihydro-indol-3-ylidenemethyl]-5-(2-diethylamino-ethyl)-3-methyl-1,5,6,7-tetrahydro-pyrrolo[3,2-c]pyridin-4-one] returned an IC50 in assay [1] of 940 nM.

For the compound `Cc1c(/C=C2\C(=O)Nc3ncnc(Nc4ccc(F)c(Cl)c4)c32)[nH]c2c1C(=O)N(CCN1CCOCC1)CC2` [Example 24, 4-(3-Chloro-4-fluoro-phenylamino)-5-[3-methyl-5-(2-morpholin-4-yl-ethyl)-4-oxo-4,5,6,7-tetrahydro-1H-pyrrolo[3,2-c]pyridine-2-ylmethylenene]-5,7-dihydro-pyrrolo[2,3-d]pyrimidin-6-one], the IC50 stood at 310 nM in assay [1] and 830 nM in assay [2].

For `CCN(CC)CCN1CCc2[nH]c(/C=C3\C(=O)Nc4cccc(C5CCNCC5)c43)c(C)c2C1=O` [Example 31, 5-(2-Diethylamino-ethyl)-3-methyl-2-(2-oxo-4-piperidin-4-yl-1,2-dihydro-indol-3-ylidenemethyl)-1,5,6,7-tetrahydro-pyrrolo[3,2-c]pyridin-4-one], the figures for the IC50 in assay [1] and in assay [2] were 210 nM and 980 nM, respectively.

`CCN(CC)CCN1CCc2[nH]c(/C=C3\C(=O)Nc4ccc(OC)cc43)c(C)c2C1=O` [Example 35, 5-(2-Diethylamino-ethyl)-2-(5-methoxy-2-oxo-1,2-dihydro-indol-3-ylidenemethyl)-3-methyl-1,5,6,7-tetrahydro-pyrrolo[3,2-c]pyridin-4-one] had an IC50 in assay [1] of 3320 nM.
